According to US20020090380A1, “Novel formulation comprising thymol useful in the treatment of drug resistant bacterial infections” (priority 2000, published 2002):
Read-outs that look alike come from different tables or passages of the source.

Key:
[1] = tested on: Ethidium bromide resistant strain of Mycobacterium smegmetis; type: cell-based
E. coli CA 8000 (WT) = type: cell-based, Escherichia coli; settings: CA 8000 (WT)
[2] = tested on: lomefloxacin resistant cells of E. coli; type: cell-based, Escherichia coli
Nal^R mutants of E. coli = type: cell-based, Escherichia coli
E. coli cells = assay: microbe, parasite or virus in culture; type: cell-based; settings: Escherichia coli

CO[C@H]1/C=C/O[C@@]2(C)Oc3c(C)c(O)c4c(O)c(c(/C=N/N5CCN(C)CC5)c(O)c4c3C2=O)NC(=O)/C(C)=C\C=C\[C@H](C)[C@H](O)[C@@H](C)[C@@H](O)[C@@H](C)[C@H](OC(C)=O)[C@@H]1C [Rifampicin]
40 µg/mL: concentration against which the strain is resistant (mdr) [1]

CN(C)[C@@H]1C(O)=C(C(N)=O)C(=O)[C@@]2(O)C(O)=C3C(=O)c4c(O)cccc4[C@@](C)(O)[C@H]3C[C@@H]12 [Tetracycline]
10 µg/mL: concentration against which the strain is resistant (mdr) [1]

CCn1cc(C(=O)O)c(=O)c2ccc(C)nc21 [Nalidixic Acid, nalidixic acid]
11 mm: zone of inhibition at 1.5 µg/disc (E. coli cells; nalidixic acid 1.50 μg/disc)
−: Growth in poison agar medium (E. coli CA 8000 (WT); 50 μg/ml, Table 2) | Growth in poison agar medium (E. coli CA 8000 (WT); 50 μg/ml, Table 4)
6 mm: zone of inhibition at 0.5 µg/disc (E. coli cells; nalidixic acid 0.50 μg/disc)
12 mm: zone of inhibition at 2 µg/disc (E. coli cells; nalidixic acid 2.00 μg/disc)
+: Growth in poison agar medium ([2]; CAL 101, 50 μg/ml) | Growth in poison agar medium ([2]; CAL 102, 50 μg/ml) | Growth in poison agar medium ([2]; CAL 103, 50 μg/ml) | Growth in poison agar medium ([2]; CAL 104, 50 μg/ml) | Growth in poison agar medium ([2]; CAL 105, 50 μg/ml) | Growth in poison agar medium ([2]; CAL 106, 50 μg/ml) | Growth in poison agar medium ([2]; CAL 107, 50 μg/ml) | Growth in poison agar medium ([2]; CAL 108, 50 μg/ml) | Growth in poison agar medium (Nal^R mutants of E. coli; CAN 101, 50 μg/ml) | Growth in poison agar medium (Nal^R mutants of E. coli; CAN 102, 50 μg/ml) | Growth in poison agar medium (Nal^R mutants of E. coli; CAN 103, 50 μg/ml) | Growth in poison agar medium (Nal^R mutants of E. coli; CAN 104, 50 μg/ml) | Growth in poison agar medium (Nal^R mutants of E. coli; CAN 105, 50 μg/ml) | Growth in poison agar medium (Nal^R mutants of E. coli; CAN 106, 50 μg/ml) | Growth in poison agar medium (Nal^R mutants of E. coli; CAN 107, 50 μg/ml) | Growth in poison agar medium (Nal^R mutants of E. coli; CAN 108, 50 μg/ml) | Growth in poison agar medium (Nal^R mutants of E. coli; CAN 109, 50 μg/ml) | Growth in poison agar medium (Nal^R mutants of E. coli; CAN 110, 50 μg/ml) | Growth in poison agar medium (Nal^R mutants of E. coli; CAN 111, 50 μg/ml) | Growth in poison agar medium (Nal^R mutants of E. coli; CAN 112, 50 μg/ml) | Growth in poison agar medium (Nal^R mutants of E. coli; CAN 113, 50 μg/ml) | Growth in poison agar medium (Nal^R mutants of E. coli; CAN 114, 50 μg/ml) | Growth in poison agar medium (Nal^R mutants of E. coli; CAN 115, 50 μg/ml) | Growth in poison agar medium (Nal^R mutants of E. coli; CAN 116, 50 μg/ml) | Growth in poison agar medium (Nal^R mutants of E. coli; CAN 117, 50 μg/ml) | Growth in poison agar medium (Nal^R mutants of E. coli; CAN 118, 50 μg/ml) | Growth in poison agar medium (Nal^R mutants of E. coli; CAN 119, 50 μg/ml) | Growth in poison agar medium (Nal^R mutants of E. coli; CAN 120, 50 μg/ml) | Growth in poison agar medium (Nal^R mutants of E. coli; CAN 121, 50 μg/ml) | Growth in poison agar medium (Nal^R mutants of E. coli; CAN 122, 50 μg/ml) | Growth in poison agar medium (Nal^R mutants of E. coli; CAN 123, 50 μg/ml) | Growth in poison agar medium (Nal^R mutants of E. coli; CAN 124, 50 μg/ml) | Growth in poison agar medium (Nal^R mutants of E. coli; CAN 125, 50 μg/ml) | Growth in poison agar medium (Nal^R mutants of E. coli; CAN 126, 50 μg/ml)
3 mm: zone of inhibition at 0.25 µg/disc (E. coli cells; nalidixic acid 0.25 μg/disc)
9 mm: zone of inhibition at 1 µg/disc (E. coli cells; nalidixic acid 1.00 μg/disc)

CCn1cc(C(=O)O)c(=O)c2cc3c(cc21)OCO3 [Oxolinic Acid, oxolinic acid]
+: Growth in poison agar medium ([2]; CAL 101, 5 μg/ml) | Growth in poison agar medium ([2]; CAL 102, 5 μg/ml) | Growth in poison agar medium ([2]; CAL 103, 5 μg/ml) | Growth in poison agar medium ([2]; CAL 104, 5 μg/ml) | Growth in poison agar medium ([2]; CAL 105, 5 μg/ml) | Growth in poison agar medium ([2]; CAL 106, 5 μg/ml) | Growth in poison agar medium ([2]; CAL 107, 5 μg/ml) | Growth in poison agar medium ([2]; CAL 108, 5 μg/ml) | Growth in poison agar medium (Nal^R mutants of E. coli; CAN 106, 5 μg/ml) | Growth in poison agar medium (Nal^R mutants of E. coli; CAN 107, 5 μg/ml) | Growth in poison agar medium (Nal^R mutants of E. coli; CAN 108, 5 μg/ml) | Growth in poison agar medium (Nal^R mutants of E. coli; CAN 109, 5 μg/ml) | Growth in poison agar medium (Nal^R mutants of E. coli; CAN 110, 5 μg/ml) | Growth in poison agar medium (Nal^R mutants of E. coli; CAN 111, 5 μg/ml) | Growth in poison agar medium (Nal^R mutants of E. coli; CAN 113, 5 μg/ml) | Growth in poison agar medium (Nal^R mutants of E. coli; CAN 114, 5 μg/ml) | Growth in poison agar medium (Nal^R mutants of E. coli; CAN 115, 5 μg/ml) | Growth in poison agar medium (Nal^R mutants of E. coli; CAN 116, 5 μg/ml) | Growth in poison agar medium (Nal^R mutants of E. coli; CAN 117, 5 μg/ml) | Growth in poison agar medium (Nal^R mutants of E. coli; CAN 118, 5 μg/ml) | Growth in poison agar medium (Nal^R mutants of E. coli; CAN 121, 5 μg/ml) | Growth in poison agar medium (Nal^R mutants of E. coli; CAN 122, 5 μg/ml) | Growth in poison agar medium (Nal^R mutants of E. coli; CAN 123, 5 μg/ml) | Growth in poison agar medium (Nal^R mutants of E. coli; CAN 124, 5 μg/ml) | Growth in poison agar medium (Nal^R mutants of E. coli; CAN 125, 5 μg/ml) | Growth in poison agar medium (Nal^R mutants of E. coli; CAN 126, 5 μg/ml)
−: Growth in poison agar medium (E. coli CA 8000 (WT); 5 μg/ml, Table 2) | Growth in poison agar medium (E. coli CA 8000 (WT); 5 μg/ml, Table 4) | Growth in poison agar medium (Nal^R mutants of E. coli; CAN 101, 5 μg/ml) | Growth in poison agar medium (Nal^R mutants of E. coli; CAN 102, 5 μg/ml) | Growth in poison agar medium (Nal^R mutants of E. coli; CAN 103, 5 μg/ml) | Growth in poison agar medium (Nal^R mutants of E. coli; CAN 104, 5 μg/ml) | Growth in poison agar medium (Nal^R mutants of E. coli; CAN 105, 5 μg/ml) | Growth in poison agar medium (Nal^R mutants of E. coli; CAN 112, 5 μg/ml) | Growth in poison agar medium (Nal^R mutants of E. coli; CAN 119, 5 μg/ml) | Growth in poison agar medium (Nal^R mutants of E. coli; CAN 120, 5 μg/ml)
